Data reported in PMC2577671, “Evaluation of Dimebon in cellular model of Huntington's disease” (Molecular Neurodegeneration, 2008).

Target: T1, Dopamine D2S receptor (Homo sapiens, UniProt P14416)
T1 construct: gene DRD2; D2S
Assay: MDS Pharma Services binding screen at […]

T1 sequence (P14416 other isoform, or with tags, fused parts or gaps): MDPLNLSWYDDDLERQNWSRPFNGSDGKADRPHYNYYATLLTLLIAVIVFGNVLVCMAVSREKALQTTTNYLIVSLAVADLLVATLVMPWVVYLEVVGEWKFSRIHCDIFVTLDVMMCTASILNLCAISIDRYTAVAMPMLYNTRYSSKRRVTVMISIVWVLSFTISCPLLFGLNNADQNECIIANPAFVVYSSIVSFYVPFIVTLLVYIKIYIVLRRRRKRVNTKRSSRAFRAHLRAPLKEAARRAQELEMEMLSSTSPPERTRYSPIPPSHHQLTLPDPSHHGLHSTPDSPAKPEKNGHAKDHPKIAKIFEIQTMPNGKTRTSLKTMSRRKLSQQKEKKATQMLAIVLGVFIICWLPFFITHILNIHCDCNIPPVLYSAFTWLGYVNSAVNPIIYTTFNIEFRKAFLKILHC

Cc1ccc2c(c1)c1c(n2CCc2ccc(C)nc2)CCN(C)C1 [Dimebon, 2,3,4,5-Tetrahydro-2,8-dimethyl-5-(2-(6-methyl-3-pyridyl)ethyl)-1H-pyrido(4,3-b)indole]
inhibition at 10 µM: 70 to 80%
